Data set [1] has as its system Hep3B human hepatocarcinoma cells. Nature of the data set: Cell proliferation assay (presto blue, 72 h). The data set is classed as cell-based. As to conditions: Homo sapiens, Hep3B, 72 h; read-out: Hep3B (IC50), anti-proliferation activity. The procedure: (§1) Cell cultures. Hep3B (ATCC) and Hepa1-6 (ATCC) cells were seeded in 96-well plates at a density of 3000 cells/well with complete media. On day 2, media in each well was aspirated and replaced with 100 μl of fresh complete media and cells were treated with or without Compound I-1, Compound I-32, Compound I1-84, and Compound I-85, in a concentration dependent manner. Then, cells were incubated in an incubator for 72 h. On day 5, 10 μl of presto blue (Invitrogen, cat #A13261) cell viability reagent was added in each 96-well plate and incubated at 37° C. for 1-2 h. After incubation, fluorescence was measured with an excitation/emission wavelength of 560/590 nm.
(§2) Proliferation assay. Hep3B (ATCC) and Hepa1-6 (ATCC) cells were seeded in 96-well plates at a density of 3000 cells/well with complete media. On day 2, media in each well was aspirated and replaced with 100 μl of fresh complete media and cells were treated with/without testing compounds in a concentration dependent manner. Then, cells were incubated in an incubator for 72 h. On day 5, 10 μl of presto blue (Invitrogen, cat #A13261) cell viability reagent was added in each 96-well plate and incubated at 37° C. for 1-2 h. After incubation, fluorescence was measured with an excitation/emission wavelength of 560/590 nm. Anti-proliferative combination effects of Compound I-1 or Compound I-32 and regorafenib were determined in Hep3B and Hepa1-6 cells. Drug combination interaction was determined by the Chou-Talalay method (23), which is based on well-known equations for different reaction sequences and mechanisms, and different types of inhibition. These equations provide the theoretical basis for the combination index (CI)-isobologram equation that allows quantitative determination of drug interactions, where CI<1, =1, and >1 indicate synergism, additive effect, and antagonism, respectively. CI is calculated based on in vitro measurements implemented in the Compusyn software (www.combosyn.com), a platform for drug combinations pharmacodynamics with automated simulations. The software calculates CI based on the Fractional Inhibition (Fa), which is the potency expressed by the average effect values for each drug concentrations as determined by in vitro experiments. The dose-effect data entries are utilized for automated computerized analysis by the Compusyn software.
(§3) Data entered was obtained by in vitro experiments performed as follows: Hep3B or Hepa 1-6 cells were plated in a 96-well format and cell proliferation rates were determined as described above. Cells were treated with 5 doses of each test agent alone at the following concentrations: compounds of the invention dosed at 1, 5, 10, 50, or 100 μM for both Hep3B and Hepa1-6 cells, regorafenib dosed at 0.015, 0.075, 0.15, 0.75, and 1.5 μM for Hep3B cells or 0.05, 0.25, 0.5, 2.5, 5 μM for Hepa 1-6 cells. […]. Data are shown as Fa-CI plots where CI is the combination index and Fa is fractional inhibition. Results were indicated as mean±standard deviation (SD). All bar diagrams and line graphs were prepared using Graph Pad Prism 8 software. Drug synergy was calculated using the CompuSyn software.
(§4) Methods: Hep3B cells (supplied by ATCC) and Hepa1-6 cells (supplied by ATCC) were seeded in 96-well plates at a density of 3000 cells/well with complete media. On day 2, the media in each well was aspirated and replaced with 100 μL of fresh complete media, and the cells were treated in a concentration dependent manner with either Compound I-1, Compound I-32, Compound I-84, Compound I-85, sorafenib, lenvatinib, Compound I-1 in combination with sorafenib. Compound I-1 in combination with lenvatinib, Compound I-32 in combination with sorafenib, or Compound I-32 in combination with lenvatinib. The cells were then incubated in an incubator at 37° C. for 72 h. On day 5, 10 μL of presto blue (Invitrogen, cat #A13261) cell viability reagent was added to each 96-well plate and incubated at 37° C. for 1-2 h. […]

For data set [2], the system named is Hepa1-6 murine hepatoma cells. Briefly: Cell proliferation assay (presto blue, 72 h). The data set is classed as cell-based, mouse. To be noted: Mus musculus, Hepa1-6, 72 h; read-out: Hepa1-6 (IC50), anti-proliferation activity. Here is the method:
as §1, §2, §3, §4

The test system of data set [3] is Hep3B human hepatocarcinoma cells. Briefly: Colony formation assay (clonogenic survival, 7 days). In kind it is cell-based. As to conditions: 168 h, read-out: Hep3B (IC50), anti-clonogenic activity. Here is the method:
(§5) Colony formation assay. Hep3B and Hepa1-6 cells were seeded in 12-well plates at a cell density of 1000 and 500 cells/well, respectively. On day 2, media in each well was aspirated and replaced with 1000 μl of fresh complete media and cells were treated with or without the respective drugs in an increasing concentration followed by the incubation of the cells for 7 days in an incubator.
(§6) On day 9, the media in each well was aspirated and cells were fixed with 10% formalin (500 μl) for 10 minutes at room temperature. Formalin was aspirated and the plates were washed with 1×PBS and stained with crystal violet for another 10 minutes. After 10 minutes of staining, crystal violet was […] the cells, rinsed with tap water for three times and the plates were dried overnight. Next day, colonies (>50 cells) were counted and analyzed.
(§7) Statistical tests. Results were indicated as mean±standard deviation (SD). All line graphs were prepared using Graph Pad Prism 8 software. Proliferation and clonogenics IC50 values were calculated using a non-linear regression model in Graph pad Prism 8.

For data set [4], the system named is Hepa1-6 murine hepatoma cells. Described as above. The data set is classed as cell-based. To be noted: Mus musculus, Hepa1-6, 168 h, read-out: Hepa1-6 (IC50), anti-clonogenic activity. The procedure: as §5, §6, §7
Data set [5] has as its target T1, Human ACC1 (Homo sapiens, UniProt Q13085).
T1 construct: FLAG (C); His (C); purchased BPS Biosciences 50202; host or cells: Baculovirus infected Sf9 cells
Briefly: ACC1 enzymatic assay (ADP-Glo). The data set is classed as biochemical. As to conditions: recombinant human ACC1 5 nM, 10 μM ATP, 10 μM acetyl CoA; Run 1-3; read-out: Compound IC50 (M) ACC1. Here is the method: (§8) Human ACC1 (Cat#50202 Lot #120830) and ACC2 (Cat #50201 Lot #160217) were obtained from BPS Biosciences, San Diego, Calif. 92121. Human ACC1 had C-terminal flag and His-tags with a MW of 270 KDa after purification from Baculovirus infected Sf9 cell expression system and came as a solution in 50 mM Tris-HCl, pH 8.0, 500 mM NaCl, 10% glycerol, 1 mM DTT, 100 μg/ml FLAG peptide with 70% purity. The stock concentration was 0.25 mg/ml corresponding to 0.926 μM. Human ACC2 was also purified from Baculovirus infected Sf9 expression system. […] The stock concentration was 0.1 mg/ml corresponding to 0.36 μM. The assay buffer for measuring the activity of ACC contained: 30 mM HEPES (pH 7.4), 2 mM MgCl2, 0.01% Brij35, 2 mM DTT, 1% DMSO (solvent for compound). For ACC1 and ACC2 assays, the following concentrations of substrate and cofactors were used: 12 mM NaHCO3, 10 μM acetyl CoA, 10 μM ATP, and 2 mM K-citrate. The recombinant human enzyme was used at 5 nM for ACC1 and 1 nM for ACC2. In brief, enzyme alone in the above buffer without substrate was used for background. All test materials were dissolved in 100% DMSO using acoustic technology (Echo550). The prepared solution was preincubated for 15 min followed by the addition of 5 μL/well of ADP standard. ATP was then added to start the reaction. The assay contents were spun and briefly shaken followed by incubation at room temperature for 1 h. At the end of completion of assay, 5 μL of ADP-Glo was added to each well to stop the reaction. The contents were mixed, spun and incubated at room temperature for 40 min followed by the addition of 10 μL/well of ADP detection reagent. The contents were spun, mixed and covered with plastic to measure luminescence. […] The light generated, measured in a luminometer, correlates to the amount of ADP generated in the ACC assay, which is indicative of ACC activity.
(§9) The enzyme concentrations for ACC1 and ACC2 were 5 nM and 1 nM, respectively.
Data represent nM or μM ADP produced, % Activity (relative to no inhibitor controls), and curve fits were performed by GraphPad Prism software. The IC50 concentration-response curves were generated for both the ACC1 and ACC2 assays using recombinant human ACC.

Data set [6] addresses T2, Human ACC2 (Homo sapiens, UniProt O00763).
T2 construct: FLAG (C); His (C); purchased BPS Biosciences 50201; host or cells: Baculovirus infected Sf9 cells
Briefly: ACC2 enzymatic assay (ADP-Glo). As to conditions: recombinant human ACC2 1 nM, 10 μM ATP, 10 μM acetyl CoA; Run 1-3; read-out: Compound IC50 (M) ACC2. The data set is classed as biochemical. The procedure:
as §8, §9
Data represent nM or μM ADP produced, % Activity (relative to no inhibitor controls), and curve fits were performed by GraphPad Prism software. […]

Data set [7] deals with Acyl-CoA synthetase activity in rat liver microsomes. Nature of the data set: Synthesis of CoA derivatives in rat liver microsomes (LCMS). To be noted: 1 mM substrate, 30 min sample vs 0 min.
Protocol: Prior to the experiment a 1 mM working stock was created in primary hepatocyte media which was used to create the final dilution series of 0 (vehicle), 0.3, 1, 3, 10, and 30 μM. The final concentration of DMSO in all samples was <1%.
For initial validation of ACS activity using palmitate, 14C-palmitate was added (0.5 μCi/ml). Each sample was equilibrated at 37° C. while shaking for 10 min before the reaction was initiated by the addition of 0.04 mg of rat microsomal preparation (ThermoFisher Scientific. Cat #RTM-CPL, Lot #RT060-A) followed by incubation for 1, 3, 10, or 30 mins. Time 0 sample with no added microsomes was used as a control. The reaction was stopped by immediately placing the reaction tube on ice followed by the rapid addition of the reaction mixture to 2.25 ml ice-cold isopropanol/heptane/2M-sulfuric acid (40:10:1, vol/vol) in a 5 ml glass vial. […] For studies that involved measurement of 14C Palmitoyl-CoA formation, 200 μl of the lower aqueous phase was added to the 5 ml of scintillation fluid and the number of DPMs were determined by liquid scintillation counting for 5 minutes using a LS6500 Liquid Scintillation Counter (Beckman Coulter). […]
The reaction products were ionized by electrospray ion source (ESI) in positive mode. […] The resulting mass spectra were analyzed using the Xcalibur 2.1 Qualitative software package. […]

T2 sequence (O00763 whole entry): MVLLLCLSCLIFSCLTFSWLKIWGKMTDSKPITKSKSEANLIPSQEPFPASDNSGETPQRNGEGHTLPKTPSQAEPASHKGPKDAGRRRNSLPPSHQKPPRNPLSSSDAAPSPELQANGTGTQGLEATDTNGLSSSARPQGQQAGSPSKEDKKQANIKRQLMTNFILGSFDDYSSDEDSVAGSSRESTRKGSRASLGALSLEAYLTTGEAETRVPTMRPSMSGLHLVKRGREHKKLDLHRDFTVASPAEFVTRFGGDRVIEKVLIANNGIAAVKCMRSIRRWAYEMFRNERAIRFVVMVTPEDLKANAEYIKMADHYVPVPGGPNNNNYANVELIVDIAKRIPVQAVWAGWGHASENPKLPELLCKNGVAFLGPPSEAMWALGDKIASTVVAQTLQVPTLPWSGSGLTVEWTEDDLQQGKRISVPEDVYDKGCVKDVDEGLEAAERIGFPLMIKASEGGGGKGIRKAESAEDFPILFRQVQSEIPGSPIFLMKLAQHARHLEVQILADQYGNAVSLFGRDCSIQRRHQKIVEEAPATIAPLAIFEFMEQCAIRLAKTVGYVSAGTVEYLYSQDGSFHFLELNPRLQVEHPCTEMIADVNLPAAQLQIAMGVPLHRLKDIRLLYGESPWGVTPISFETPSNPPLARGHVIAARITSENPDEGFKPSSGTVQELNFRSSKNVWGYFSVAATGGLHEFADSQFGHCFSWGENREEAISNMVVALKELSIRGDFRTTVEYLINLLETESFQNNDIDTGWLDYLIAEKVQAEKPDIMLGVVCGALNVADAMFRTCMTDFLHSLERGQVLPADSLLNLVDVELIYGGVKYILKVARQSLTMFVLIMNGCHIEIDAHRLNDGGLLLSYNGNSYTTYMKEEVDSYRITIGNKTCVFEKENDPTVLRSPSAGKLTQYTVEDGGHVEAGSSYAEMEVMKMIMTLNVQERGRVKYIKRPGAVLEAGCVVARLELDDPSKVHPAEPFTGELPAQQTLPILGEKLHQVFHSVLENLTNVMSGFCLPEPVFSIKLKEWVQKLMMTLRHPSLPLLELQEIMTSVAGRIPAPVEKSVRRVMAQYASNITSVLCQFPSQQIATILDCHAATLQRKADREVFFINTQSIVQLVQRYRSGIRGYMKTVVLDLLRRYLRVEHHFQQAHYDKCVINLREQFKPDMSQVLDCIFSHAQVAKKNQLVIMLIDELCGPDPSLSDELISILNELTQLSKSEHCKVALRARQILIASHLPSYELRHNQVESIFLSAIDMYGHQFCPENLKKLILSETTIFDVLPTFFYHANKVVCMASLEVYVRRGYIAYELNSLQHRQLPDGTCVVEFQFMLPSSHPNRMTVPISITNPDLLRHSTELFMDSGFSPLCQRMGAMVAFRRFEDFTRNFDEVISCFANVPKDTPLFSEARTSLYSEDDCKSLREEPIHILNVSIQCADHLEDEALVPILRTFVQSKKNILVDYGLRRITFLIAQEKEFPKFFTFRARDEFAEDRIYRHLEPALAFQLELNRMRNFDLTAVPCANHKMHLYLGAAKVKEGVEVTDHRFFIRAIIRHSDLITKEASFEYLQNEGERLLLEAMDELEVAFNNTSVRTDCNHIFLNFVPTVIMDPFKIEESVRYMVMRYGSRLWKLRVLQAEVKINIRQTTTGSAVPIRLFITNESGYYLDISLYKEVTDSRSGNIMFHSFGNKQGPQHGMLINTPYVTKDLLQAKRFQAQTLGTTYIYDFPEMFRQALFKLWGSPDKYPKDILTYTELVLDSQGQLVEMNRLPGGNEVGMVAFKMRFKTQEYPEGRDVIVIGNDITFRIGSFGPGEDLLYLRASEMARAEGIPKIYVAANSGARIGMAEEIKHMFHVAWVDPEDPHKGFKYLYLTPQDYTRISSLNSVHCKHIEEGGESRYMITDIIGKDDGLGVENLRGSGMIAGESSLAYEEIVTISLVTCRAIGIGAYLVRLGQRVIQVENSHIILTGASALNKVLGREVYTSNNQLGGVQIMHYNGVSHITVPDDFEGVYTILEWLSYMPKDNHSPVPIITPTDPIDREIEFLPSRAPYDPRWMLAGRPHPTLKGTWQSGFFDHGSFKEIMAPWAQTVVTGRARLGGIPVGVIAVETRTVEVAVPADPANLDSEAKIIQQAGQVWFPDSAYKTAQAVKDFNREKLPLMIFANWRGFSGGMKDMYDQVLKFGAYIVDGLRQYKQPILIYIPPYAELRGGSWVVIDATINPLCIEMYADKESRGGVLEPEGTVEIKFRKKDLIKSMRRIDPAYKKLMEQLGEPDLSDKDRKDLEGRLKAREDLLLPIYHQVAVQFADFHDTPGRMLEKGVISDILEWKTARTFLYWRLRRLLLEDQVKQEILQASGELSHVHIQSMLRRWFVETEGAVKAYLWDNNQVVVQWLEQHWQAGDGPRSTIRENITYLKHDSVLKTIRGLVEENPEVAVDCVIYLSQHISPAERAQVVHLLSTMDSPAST

Take `CC(C)(CCCCc1ccc(CCCCC(C)(C)CC(=O)O)cc1)CC(=O)O` [Compound I-84, 7,7′-(1,4-phenylene)bis(3,3-dimethylheptanoic acid)]: the IC50 in data set [1] is above 100 µM; in data set [2], above 100 µM; in data set [3], 50.1 µM; in data set [4] it was 64.9 µM.
`O=C(c1c2ccccc2cc2ccccc12)N1CCC(N2CCC[C@@H](C(=O)N3CCOCC3)C2)CC1` [CP 640186, reference compound]: the IC50 in data set [5] was 2.14e-06 M; in data set [6] it was 7.81e-08 M.
In the case of `CC(C)(CCCCc1cccc(CCCCC(C)(C)CC(=O)O)c1)CC(=O)O` [Compound I-85, 7,7′-(1,3-phenylene)bis(3,3-dimethylheptanoic acid)], the IC50 was above 100 µM in data set [1], above 100 µM in data set [2], 49.1 µM in data set [3] and 61 µM in data set [4].
Take `CC(C)(CCCc1ccccc1CCCC(C)(C)C(=O)SCCNC(=O)CCNC(=O)[C@H](O)C(C)(C)COP(=O)(O)OP(=O)(O)OC[C@H]1O[C@@H](n2cnc3c(N)ncnc32)[C@H](O)[C@@H]1OP(=O)(O)O)C(=O)O` [Compound I-61-CoA, 5-[2-(4-Carboxy-4-methylpentyl)-phenyl]-2,2-dimethylpentanoic acid Coenzyme A ester]: in data set [7], the “formation of the CoA derivative, detection by LCMS” value was “could not be confirmed using fragmentation analysis”.
The same measure, in the same setting: under `CC(C)(CCCc1ccc(CCCC(C)(C)C(=O)SCCNC(=O)CCNC(=O)[C@H](O)C(C)(C)COP(=O)(O)OP(=O)(O)OC[C@H]2O[C@@H](n3cnc4c(N)ncnc43)[C@H](O)[C@@H]2OP(=O)(O)O)cc1)C(=O)O` [III-1-CoA, 5-[4-(4-Carboxy-4-methylpentyl)-phenyl]-2,2-dimethylpentanoic acid Coenzyme A ester] stands “could not be confirmed using fragmentation analysis”.

For the origin of these results see patent publication US11730712B2, “Functionalized long-chain hydrocarbon mono- and di-carboxylic acids and derivatives thereof, and their use for the prevention or treatment of disease” (ESPERVITA THERAPEUTICS, INC., priority 2021, dated 2023).
